{"source": "patent US20240417410A1", "about": "“TRICYCLIC COMPOUNDS FOR THE TREATMENT OF CANCER” (Hoffmann-La Roche Inc., priority 2023, published 2024)", "assay_in_all_cases": "Cell proliferation, CTG 3D, 7 d", "type_in_all_cases": "cell-based", "key": {"CFPAC-1": {"test_system": "CFPAC-1", "settings": "Homo sapiens; CFPAC-1, KRAS (G12V)", "how_it_was_run": "(§1)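 Luminescent ATP signal (CellTiter-Glo 3D) measured spheroid viability after a 7-day compound exposure. Dosing used nine 3-fold dilutions at 0.2% DMSO in ultra-low-adhesion plates. Inhibition was normalized to max and min controls and fitted for relative IC50.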"}, "DLD-1": {"test_system": "DLD-1", "settings": "Homo sapiens", "how_it_was_run": "as §1"}, "HAL-01": {"test_system": "HAL-01", "settings": "Homo sapiens", "how_it_was_run": "as §1"}, "HCT-8": {"test_system": "HCT-8", "settings": "Homo sapiens", "how_it_was_run": "as §1"}, "HT-1197": {"test_system": "HT-1197", "settings": "Homo sapiens, HT1197", "how_it_was_run": "as §1"}, "KP-2": {"test_system": "KP-2", "settings": "Homo sapiens", "how_it_was_run": "as §1"}, "LCLC-97TM1": {"test_system": "LCLC-97TM1", "settings": "Homo sapiens; LCLC-97TM1, KRAS (G12V)", "how_it_was_run": "as §1"}, "MKN-1": {"test_system": "MKN-1", "settings": "Homo sapiens; MKN-1, KRAS (WT ampl)", "how_it_was_run": "as §1"}, "Mino": {"test_system": "Mino", "settings": "Homo sapiens", "how_it_was_run": "as §1"}, "NCI-H1355": {"test_system": "NCI-H1355", "settings": "Homo sapiens", "how_it_was_run": "as §1"}, "NCI-H1876": {"test_system": "NCI-H1876", "settings": "Homo sapiens", "how_it_was_run": "as §1"}, "NCI-H1915": {"test_system": "NCI-H1915", "settings": "Homo sapiens", "how_it_was_run": "as §1"}, "NCI-H1944": {"test_system": "NCI-H1944", "settings": "Homo sapiens", "how_it_was_run": "as §1"}, "NCI-H727": {"test_system": "NCI-H727", "settings": "Homo sapiens; NCI-H727, KRAS (G12V)", "how_it_was_run": "as §1"}, "NCI-H929": {"test_system": "NCI-H929", "settings": "Homo sapiens", "how_it_was_run": "as §1"}, "OCI-Ly19": {"test_system": "OCI-Ly19", "settings": "Homo sapiens", "how_it_was_run": "as §1"}, "PK-59": {"test_system": "PK-59", "settings": "Homo sapiens; PK-59, KRAS (G12D)", "how_it_was_run": "as §1"}, "Panc 02.13": {"test_system": "Panc 02.13", "settings": "Homo sapiens", "how_it_was_run": "as §1"}, "RD": {"test_system": "RD", "settings": "Homo sapiens", "how_it_was_run": "as §1"}, "RERF-LC-Ad1": {"test_system": "RERF-LC-Ad1", "settings": "Homo sapiens", "how_it_was_run": "as §1"}, "SK-MEL-2": {"test_system": "SK-MEL-2", "settings": "Homo sapiens", "how_it_was_run": "as §1"}, "SK-N-AS": {"test_system": "SK-N-AS", "settings": "Homo sapiens", "how_it_was_run": "as §1"}, "SNU-668": {"test_system": "SNU-668", "settings": "Homo sapiens, SNU668", "how_it_was_run": "as §1"}, "SW 900": {"test_system": "SW 900", "settings": "Homo sapiens, SW900; SW 900, KRAS (G12V)", "how_it_was_run": "as §1"}, "T24": {"test_system": "T24", "settings": "Homo sapiens, T-24; T24, HRAS (p.G12V)", "how_it_was_run": "as §1"}, "TYK-nu": {"test_system": "TYK-nu", "settings": "Homo sapiens", "how_it_was_run": "as §1"}, "UMC-11": {"test_system": "UMC-11", "settings": "Homo sapiens; UMC-11, KRAS (WT ampl)", "how_it_was_run": "as §1"}}, "note": "Like-named read-outs stand apart in the source and are kept apart here."}
{"compound": "CO[C@@H](C)c1ncc(N2CCN(C)CC2)cc1-c1c2c3cc(cc4c3n1CCC4)-c1csc(n1)C[C@H](NC(=O)[C@H]1[C@H](C)[C@@H]1C)C(=O)N1CCC[C@H](N1)C(=O)OCC(C)(C)C2", "note": "(atropisomer, axis not shown; (M)) [Example 24, (1r,2R,3S)-N-[(7S,13S)-(20M)-20-[2-[(1S)-1-methoxyethyl]-5-(4-methylpiperazin-1-yl)-3-pyridyl]-17,17-dimethyl-8,14-dioxo-15-oxa-4-thia-9,21,30,31-tetrazahexacyclo[23.3.1.1^2,5.1^9,13.0^19,27.0^21,26]hentriaconta-1 (28),2,5 (31), 19,25 (29),26-hexaen-7-yl]-2,3-dimethyl-cyclopropanecarboxamide]", "values": [{"measurement": "IC50", "setting": "CFPAC-1", "value": 0.54, "unit": "nM"}, {"measurement": "IC50", "setting": "DLD-1; DLD-1, KRAS (G13D), read-out: IC50", "value": 18, "unit": "nM"}, {"measurement": "IC50", "setting": "HAL-01; HAL-01, NRAS (p.G12S), read-out: IC50", "value": 13, "unit": "nM"}, {"measurement": "IC50", "setting": "HCT-8; HCT-8, KRAS (G13D), read-out: IC50", "value": 80, "unit": "nM"}, {"measurement": "IC50", "setting": "HT-1197; HT-1197, NRAS (p.Q61R), read-out: IC50", "value": 1.4, "unit": "nM"}, {"measurement": "IC50", "setting": "KP-2; KP-2, KRAS (G12R), read-out: IC50", "value": 0.35, "unit": "nM"}, {"measurement": "IC50", "setting": "LCLC-97TM1", "value": 0.092, "unit": "nM"}, {"measurement": "IC50", "setting": "MKN-1", "value": 28, "unit": "nM"}, {"measurement": "IC50", "setting": "Mino; Mino, NRAS (p.G13D), read-out: IC50", "value": 3.8, "unit": "nM"}, {"measurement": "IC50", "setting": "NCI-H1355; NCI-H1355, KRAS (G13C), read-out: IC50", "value": 22, "unit": "nM"}, {"measurement": "IC50", "setting": "NCI-H1876; NCI-H1876, NRAS (p.Q61K), read-out: IC50", "value": 3.1, "unit": "nM"}, {"measurement": "IC50", "setting": "NCI-H1915; NCI-H1915, HRAS (p.Q61L), read-out: IC50", "value": 3.6, "unit": "nM"}, {"measurement": "IC50", "setting": "NCI-H1944; NCI-H1944, KRAS (G13D), read-out: IC50", "value": 1.6, "unit": "nM"}, {"measurement": "IC50", "setting": "NCI-H727", "value": 0.14, "unit": "nM"}, {"measurement": "IC50", "setting": "NCI-H929; NCI-H929, NRAS (p.G13D), read-out: IC50", "value": 7.3, "unit": "nM"}, {"measurement": "IC50", "setting": "OCI-Ly19; OCI-Ly19, NRAS (p.Q61K), read-out: IC50", "value": 1.9, "unit": "nM"}, {"measurement": "IC50", "setting": "PK-59", "value": 0.44, "unit": "nM"}, {"measurement": "IC50", "setting": "Panc 02.13; Panc 02.13, KRAS (Q61R), read-out: IC50", "value": 4, "unit": "nM"}, {"measurement": "IC50", "setting": "RD; NRAS (p.Q61H), read-out: IC50", "value": 0.36, "unit": "nM"}, {"measurement": "IC50", "setting": "RERF-LC-Ad1; RERF-LC-Ad1, KRAS (G12A), read-out: IC50", "value": 0.3, "unit": "nM"}, {"measurement": "IC50", "setting": "SK-MEL-2; SK-MEL-2, NRAS (p.Q61R), read-out: IC50", "value": 2, "unit": "nM"}, {"measurement": "IC50", "setting": "SK-N-AS; NRAS (p.Q61K), read-out: IC50", "value": 0.47, "unit": "nM"}, {"measurement": "IC50", "setting": "SNU-668; SNU-668, KRAS (Q61K), read-out: IC50", "value": 2, "unit": "nM"}, {"measurement": "IC50", "setting": "SW 900", "value": 0.28, "unit": "nM"}, {"measurement": "IC50", "setting": "T24", "value": 0.3, "unit": "nM"}, {"measurement": "IC50", "setting": "TYK-nu; TYK-nu, NRAS (p.G12D and p.Q61K), read-out: IC50", "value": 0.34, "unit": "nM"}, {"measurement": "IC50", "setting": "UMC-11", "value": 100, "unit": "nM"}]}
{"compound": "CCn1c(-c2cc(N3CCN(C)CC3)cnc2[C@H](C)OC)c2c3cc(ccc31)-c1csc(n1)C[C@H](NC(=O)[C@H]1C[C@@H]1C)C(=O)N1CCC[C@H](N1)C(=O)OCC(C)(C)O2", "note": "[Example A122, reference compound]", "values": [{"measurement": "IC50", "setting": "CFPAC-1", "value": 1.1, "unit": "nM"}, {"measurement": "IC50", "setting": "DLD-1; DLD-1", "value": 20, "unit": "nM"}, {"measurement": "IC50", "setting": "HAL-01; HAL-01", "value": 14, "unit": "nM"}, {"measurement": "IC50", "setting": "HCT-8; HCT-8", "value": 69, "unit": "nM"}, {"measurement": "IC50", "setting": "HT-1197", "value": 2.5, "unit": "nM"}, {"measurement": "IC50", "setting": "KP-2", "value": 0.43, "unit": "nM"}, {"measurement": "IC50", "setting": "LCLC-97TM1", "value": 0.17, "unit": "nM"}, {"measurement": "IC50", "setting": "MKN-1", "value": 40, "unit": "nM"}, {"measurement": "IC50", "setting": "Mino; MINO", "value": 1000, "unit": "nM"}, {"measurement": "IC50", "setting": "NCI-H1355; NCI-H1355", "value": 33, "unit": "nM"}, {"measurement": "IC50", "setting": "NCI-H1876", "value": 3.6, "unit": "nM"}, {"measurement": "IC50", "setting": "NCI-H1915; NCI-H1915", "value": 10, "unit": "nM"}, {"measurement": "IC50", "setting": "NCI-H1944; NCI-H1944", "value": 1.7, "unit": "nM"}, {"measurement": "IC50", "setting": "NCI-H727", "value": 0.16, "unit": "nM"}, {"measurement": "IC50", "setting": "NCI-H929; NCI-H929", "value": 8.7, "unit": "nM"}, {"measurement": "IC50", "setting": "OCI-Ly19; OCI-LY19", "value": 2.4, "unit": "nM"}, {"measurement": "IC50", "setting": "PK-59", "value": 0.62, "unit": "nM"}, {"measurement": "IC50", "setting": "Panc 02.13", "value": 15, "unit": "nM"}, {"measurement": "IC50", "setting": "RD", "value": 0.7, "unit": "nM"}, {"measurement": "IC50", "setting": "RERF-LC-Ad1", "value": 0.22, "unit": "nM"}, {"measurement": "IC50", "setting": "SK-MEL-2; SK-MEL-2", "value": 3, "unit": "nM"}, {"measurement": "IC50", "setting": "SK-N-AS", "value": 1.9, "unit": "nM"}, {"measurement": "IC50", "setting": "SNU-668", "value": 4.3, "unit": "nM"}, {"measurement": "IC50", "setting": "SW 900", "value": 0.23, "unit": "nM"}, {"measurement": "IC50", "setting": "T24", "value": 0.57, "unit": "nM"}, {"measurement": "IC50", "setting": "TYK-nu", "value": 0.68, "unit": "nM"}, {"measurement": "IC50", "setting": "UMC-11", "value": 100, "unit": "nM"}]}
